Measurements from US20130005833A1, “PHOTO-RESPONSIVE SUPRAMOLECULAR HYDROGELS” (priority 2011, published 2013).
Azo = N-terminal azobenzene

Assay: Photo-response tests on the hydrogels (UV irradiation)
Assay type: physicochemical
Set-up: key to tinit(min): time needed for initial collapse of the gel upon UV irradiation: —: no obvious change upon UV irradiation
Settings: Azo-Glu-Phe-Ala: even after 5 hours of UV-irradiation
Experimental: (§1) Photo-response tests on the hydrogels. The light source for the UV irradiation was a high pressure mercury lamp (500 w) with a filter to cut off visible light. A control experiment was performed in parallel using the same hydrogel in a tin foil covered glass vial to exclude the possibility of response induced by any external stimulus other than light irradiation. The photo-response of the hydrogels was confirmed by observation of the gel to solution phase change of the sample under irradiation, but not on the sample of negative control. In one example, ^1H NMR of Azo-Lys-D-Ala-D-Ala in d-MeOH was used to confirm that after UV irradiation for 2 minutes 11% of the compound was in the cis-configuration, and after 10 minutes, 51% was in the cis-configuration.

| Substance | photo-response of the gel upon UV irradiation (in words) |
| --- | --- |
| Azo-Glu-Phe-Ala | No photo-response was observed |
| Azo-Gly-Phe-Ala | fast responses |
| Azo-Lys-D-Phe-D-Ala | fast responses |

Same assay, conditions: UV irradiation (365 nm); Azo-Lys-Phe-Ala: partial phase transition

| Substance | total irradiation time needed for the gel to begin to collapse (tinit) |
| --- | --- |
| Azo-Gln-Phe-Ala | ≤ 3 min |
| Azo-Gly-Phe-Ala | 5 min |
| Azo-Lys-D-Phe-D-Ala | 7 min |
| Azo-Lys-Phe-Ala | 30 min |

Same assay, conditions: UV irradiation, high pressure mercury lamp (500 w)

| Substance | tinit(min): time needed for initial collapse of the gel upon UV irradiation |
| --- | --- |
| Azo-Arg-Phe-Ala | 8 min |
| Azo-D-Lys-D-Phe-D-Ala | 15 min |
| Azo-D-Lys-Phe-Ala | 4 min |
| Azo-Gln-Phe-Ala | 3 min |
| Azo-Gln-Tyr-Ala | — |
| Azo-Glu-Phe-Ala | —^d |
| Azo-Glu-Tyr-Ala | — |
| Azo-Gly-Phe-Ala | 5 min |
| Azo-Leu-Phe-Ala | 15 min |
| Azo-Lys-D-Phe-D-Ala | 7 min |
| Azo-Lys-Phe-Ala | 30 min |
| Azo-Ser-Phe-Ala | —^d |

Same assay, conditions: UV light (365 nm), without external heating

| Substance | time to complete conversion of the hydrogel into a homogeneous non-viscous solution |
| --- | --- |
| Azo-Gln-Phe-Ala | under 20 minutes |

Assay: Rheology test on the hydrogel before and after UV irradiation
Assay type: physicochemical
Settings: dynamic frequency sweep test; FIG. 4B
Experimental: Rheology test on the hydrogel before and after UV irradiation. All rheological measurements were performed using an ARES-G2 Rheometer with a cone and a plate (25 mm diameter plate and 0.0999 rad cone angle), and a gap opening between the cone and the plate of 0.0282 mm. The dynamic strain sweep test was carried out at 6.282 rad/s, and then dynamic frequency sweep test was investigated at critical strain, which was determined from storage-strain profile.

| Substance | decrease in the storage modulus of the hydrogel after UV irradiation |
| --- | --- |
| Azo-Lys-D-Phe-D-Ala | greater than 100 times |

Same assay, conditions: dynamic strain sweep test; FIG. 4A

| Substance | storage modulus of the hydrogel before UV irradiation relative to after UV irradiation |
| --- | --- |
| Azo-Lys-D-Phe-D-Ala | 70 times |

Assay: 1H NMR determination of cis-configuration after UV irradiation
Assay type: physicochemical
Settings: after UV irradiation for 2 minutes; 1H NMR in d-MeOH
Experimental: as §1

| Substance | compound in the cis-configuration |
| --- | --- |
| Azo-Lys-D-Ala-D-Ala | 11% |

Same assay, conditions: after UV irradiation for 10 minutes; 1H NMR in d-MeOH

| Substance | compound in the cis-configuration |
| --- | --- |
| Azo-Lys-D-Ala-D-Ala | 51% |

Assay: Salt effect on gelation properties
Assay type: physicochemical
Settings: buffer of higher concentration of Na2HPO4/NaH2PO4; FIG. 1B
Experimental: Salt effect: Buffers at different pHs (5 and 6) and different concentrations (0.05M, 0.1M, 0.2M and 0.5M) were prepared by mixing Na2HPO4 and NaH2PO4 with different concentration. The azo-dipeptides were mixed with a small quality of buffer and heated to about 80-90° C. to obtain a clear solution. Yellow hydrogels formed upon cooling to room temperature. The lowest concentration for hydrogelation at specific pH was obtained by successive dilution of the hydrogel by the buffer with the same concentration of salt to the point when the hydrogel no longer formed.

| Substance | salt effect on concentration required for hydrogelation |
| --- | --- |
| Azo-Ala-Tyr | decreased the concentration required for hydrogelation |
| Azo-Glu-Tyr | almost negligible |
| Azo-Tyr-Tyr | decreased the concentration required for hydrogelation |

Assay: Temperature for gel to solution phase transition
Assay type: physicochemical
Settings: not given

| Substance | temperature at which the gel turned into a solution upon heating |
| --- | --- |
| Azo-Lys-D-Phe-D-Ala | 42 °C |

Same assay, conditions: azobenzene substituted tripeptide hydrogels

| Substance | T (° C.): temperature for gel to solution phase transition |
| --- | --- |
| Azo-Arg-Phe-Ala | 47 °C |
| Azo-D-Lys-D-Phe-D-Ala | 60 °C |
| Azo-D-Lys-Phe-Ala | 39 °C |
| Azo-Gln-Phe-Ala | 65 °C |
| Azo-Gln-Tyr-Ala | 81 °C |
| Azo-Glu-Phe-Ala | 85 °C |
| Azo-Glu-Tyr-Ala | 69 °C |
| Azo-Gly-Phe-Ala | 48 °C |
| Azo-Leu-Phe-Ala | 71 °C |
| Azo-Lys-D-Phe-D-Ala | 42 °C |
| Azo-Lys-Phe-Ala | 59 °C |
| Azo-Ser-Phe-Ala | 54 °C |

Assay: Hydrogelation conditions: lowest concentration to gel water at specific pH
Assay type: physicochemical
Set-up: key to pH (hydrogelation condition): —: unable to form hydrogel under tested conditions
Settings: azobenzene substituted bio-active short peptides
Experimental: Preparation of Hydrogels. A homogeneous solution of azobenzene-substituted short peptides was prepared in a glass vial via pH adjustment and heating. Upon cooling to room temperature, a hydrogel formed for Azo-Gln-Phe-Ala; Azo-Lys-Phe-Ala; Azo-Leu- Phe-Ala; Azo-D-Lys-D-Phe-D-Ala; and Azo-Arg-Phe-Ala. However, Azo-Lys-D-Phe-D-Ala and Azo-D-Lys-Phe-Ala, sonification was necessary to facilitate the hydrogelation. Hydrogels of Azo-Ser-Phe-Ala; Azo-Gln-Tyr-Ala; Azo-Glu-Tyr-Ala; and Azo-Glu-Phe-Ala were prepared by acidifying the basic solution to the pH shown in Table 1.
Test on pH and salt effects on gelation properties. pH effect: Azo-dipeptides were mixed with a small quality of water and the mixture were adjusted to the desired pH with 1M HCl or NaOH, then heated to about 80-90° C. to obtain a clear solution. A yellow hydrogel formed upon cooling to room temperature. The lowest concentration for hydrogelation at a specific pH was obtained by successive dilution of the hydrogel using water, at the same pH that of the hydrogelation, to the point when hydrogel could not form.

| Substance | pH (to form a hydrogel) |
| --- | --- |
| Azo-GAGAS | 3.9 |
| Azo-IKVAV | 4.5 |
| Azo-LGAGGAG (Azo-LGAGGAG-OH) | 1.6 |
| Azo-VYGGG | 2.8 |
| Azo-YSV | 1.8 |

Same assay, conditions: azobenzene substituted dipeptides

| Substance | pH (hydrogelation condition) |
| --- | --- |
| Azo-Ala-Phe | 9.5 |
| Azo-Ala-Tyr | 5.1 |
| Azo-Arg-Ala | — |
| Azo-Arg-Gln | — |
| Azo-Arg-Lys | — |
| Azo-Arg-Phe | — |
| Azo-Gln-Ala | 2.5 |
| Azo-Gln-Gln | —^b |
| Azo-Gln-Tyr | 4.8 |
| Azo-Glu-Ala | 2.4 |
| Azo-Glu-Lys | — |
| Azo-Glu-Phe | 2.5 |
| Azo-Glu-Tyr | 4.8 |
| Azo-Lys-Ala | — |
| Azo-Phe-Ala | 7.8 |
| Azo-Phe-Glu | 2.1 |
| Azo-Phe-Phe | 9.7 |
| Azo-Phe-Ser | 2.0 |
| Azo-Phe-Tyr | 8.6 |
| Azo-Ser-Ala | — |
| Azo-Ser-Phe | 5.7 |
| Azo-Tyr-Ala | 3.0 |
| Azo-Tyr-Lys | 2.2 |
| Azo-Tyr-Tyr | 4.8 |

Same assay, conditions: azobenzene substituted tripeptides; pH at which the lowest gelling concentration applies

| Substance | pH (hydrogelation condition) |
| --- | --- |
| Azo-Arg-Phe-Ala | 1.6 |
| Azo-D-Lys-D-Phe-D-Ala | 1.6 |
| Azo-D-Lys-Phe-Ala | 1.4 |
| Azo-Gln-Phe-Ala | 7.8 |
| Azo-Gln-Tyr-Ala | 3.1 |
| Azo-Glu-Phe-Ala | 4.7 |
| Azo-Glu-Tyr-Ala | 3.0 |
| Azo-Gly-Phe-Ala | 7.5 |
| Azo-Leu-Phe-Ala | 8.6 |
| Azo-Lys-D-Phe-D-Ala | 1.2 |
| Azo-Lys-Phe-Ala | 1.6 |
| Azo-Ser-Phe-Ala | 3.7 |
